Literature values in patent publication US11571385B2, “Self-emulsifiable composition, production method therefor, nanoemulsion, and production method therefor” (Kewpie Corporation, priority 2017, dated 2023).

Details: solubility in water, Japanese Pharmacopoeia class

solubility	Structure (SMILES)
almost not soluble	COc1ccc2c(c1)c(CC(=O)OCC(=O)O)c(C)n2C(=O)c1ccc(Cl)cc1 [Acemetacin, acemetacin]
almost not soluble	C=CC[C@@H]1/C=C(\C)C[C@H](C)C[C@H](OC)[C@H]2O[C@@](O)(C(=O)C(=O)N3CCCC[C@H]3C(=O)O[C@H](/C(C)=C/[C@@H]3CC[C@@H](O)[C@H](OC)C3)[C@H](C)[C@@H](O)CC1=O)[C@H](C)C[C@@H]2OC [Tacrolimus, tacrolimus]
almost not soluble	COc1ccc2c(c1)c(CC(=O)O)c(C)n2C(=O)c1ccc(Cl)cc1 [Indomethacin, indomethacin]
